Results on four molecules are retold here after ChEMBL document CHEMBL1201862, “PubChem BioAssay data set” (2004).

SMILES strings stand for the structures.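 Assay format: 96-well plates, 48-hour exposure. Abbreviation: GI50, concentration required for 50% inhibition of growth.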 Activity calls are given as the source filed them. No stated cut-off is given here; in the data, active = GI50 up to about 1.1 µM and inactive = higher. Where only a bound is given, the exact number is not on record here.

Some test systems named below: HT-29; SF-539; NCI-H226; SNB-19; KM12; HCT-15; UACC-257; Hs-578T; NCI-H23; MDA-MB-231; SR; SK-MEL-2; HOP-92; SK-MEL-5; BT-549; HL-60; RPMI-8226; DU-145; SK-MEL-28.
Common to all, as to experiment: NCI tumour cell line growth inhibition, 48 h

On to `CCN(CC)Cc1cc(Nc2c3ccccc3nc3c4ccccc4n(C)c23)cc(CN(CC)CC)c1O`, for which the GI50 is 3.41 µM (inactive) in the assay with HT-29; 3.18 µM (inactive) in the assay with SF-539; 11.2 µM (inactive) with NCI-H226; 12.2 µM (inactive) with SNB-19; 6.58 µM (inactive) in the assay with KM12; 4.1 µM in the assay with HCT-15. The GI50 in the assay with UACC-257 was 2.73 µM (inactive); in the assay with Hs-578T it was 6.22 µM (inactive); in the assay with NCI-H23, 9.64 µM (inactive); in the assay with MDA-MB-231, 3.03 µM (inactive); with SR, 2.82 µM (inactive); in the assay on SK-MEL-2, 2.67 µM (inactive). In addition, the GI50 was 4.6 µM (inactive) in the assay with HOP-92; 1.65 µM (inactive) with SK-MEL-5; 2 µM (inactive) in the assay on BT-549; 2.31 µM (inactive) with HL-60; 2.1 µM (inactive) in the assay on RPMI-8226; 8.67 µM (inactive) with DU-145. Moreover, in the assay with SK-MEL-28, the GI50 is 2.37 µM (inactive).

Take `COC1CC(OC2OC(CO)C(O)C(O)C2O)/C(=C\C#N)C(O)C1OC` (stereo unspecified): the GI50 in the assay on HT-29 was > 100 µM (inactive); in the assay on SF-539, > 100 µM (inactive); with NCI-H226 it was > 100 µM (inactive); in the assay with SNB-19, > 100 µM (inactive); in the assay with KM12, > 100 µM (inactive); in the assay with HCT-15, over 100 µM. Moreover, the GI50 in the assay on UACC-257, in the assay on Hs-578T, in the assay on NCI-H23, in the assay with MDA-MB-231, in the assay on SR and in the assay with SK-MEL-2 was > 100 µM (inactive) each time. In addition, the GI50 with HOP-92, in the assay with SK-MEL-5, with BT-549, in the assay with HL-60, with RPMI-8226 and in the assay on DU-145 was > 100 µM (inactive) each time. Further, the GI50 in the assay with SK-MEL-28 was > 100 µM (inactive).

For `COC(=O)c1ccc(NCC2=CC(=O)C=CC2=O)cc1`, the GI50 in the assay on HT-29 was 17.9 µM (inactive); in the assay with SF-539 it was 10.9 µM (inactive); with NCI-H226, 17.9 µM (inactive); in the assay with SNB-19, 14.8 µM (inactive); in the assay on KM12, 13.6 µM (inactive); with HCT-15, 12.5 µM. Also, the GI50 in the assay with UACC-257 was 12.4 µM (inactive); in the assay with Hs-578T it was 21.4 µM (inactive); in the assay with NCI-H23, 14.5 µM (inactive); with MDA-MB-231, 14.2 µM (inactive); with SR it was 5.26 µM (inactive); with SK-MEL-2 it was 15.3 µM (inactive). Moreover, the GI50 is 3.43 µM (inactive) in the assay with HOP-92; 18.5 µM (inactive) with SK-MEL-5; 13.6 µM (inactive) in the assay with BT-549; 2.33 µM (inactive) in the assay on HL-60; 2.59 µM (inactive) in the assay with RPMI-8226; 15.5 µM (inactive) in the assay with DU-145. The GI50 in the assay with SK-MEL-28 is 15.1 µM (inactive).

Consider `O=c1[nH]c(=O)n(COCCO)c2ccsc12`, for which the GI50 is > 100 µM (inactive) in the assay with HT-29; > 100 µM (inactive) in the assay on SF-539; > 100 µM (inactive) in the assay with NCI-H226; 32.4 µM (inactive) in the assay on SNB-19; > 100 µM (inactive) in the assay on KM12; over 100 µM in the assay on HCT-15. The GI50 in the assay with UACC-257, in the assay with Hs-578T, in the assay with NCI-H23, with MDA-MB-231, in the assay with SR and with SK-MEL-2 was > 100 µM (inactive) each time. Besides, the GI50 in the assay on HOP-92, in the assay with SK-MEL-5, in the assay on BT-549, in the assay with HL-60, with RPMI-8226 and in the assay on DU-145 was > 100 µM (inactive) in each case. The GI50 in the assay on SK-MEL-28 was > 100 µM (inactive).
